Test results as given in patent US7399638B2, “Prediction method for lipidosis” (Takeda Pharmaceutical Company Limited, priority 2003, dated 2008).
Read-outs that look alike come from different tables or passages of the source. Marks after values point to notes of the source that are not given here.

Assays:
[1] = tested on: Crj: CD(SD)IGS rats; conditions: male, rat, in vivo, 3 days
Method: (§1) The following 10 kinds of commercially available drugs were examined as the test compounds for a potential of inducing PLsis by histopathological examination and peripheral blood lymphocyte testing.
(§2) The following experiments were performed using the prematurely autopsied animals.
(§3) The high-dose dosing suspension was diluted about 3 fold and 10 fold with dispersant/solvent to prepare intermediate- and low-dose dosing suspensions. […] [For LD50, the Summary Basis of Approval (FDA) for each drug was referenced to.]
(§4) The animals were examined for mortality, general conditions, body weight, food consumption and the like using PM4800 (Mettler) and EB3200D (Shimadzu Corporation).
Hematological examination was performed for parameters such as RBC count, hematocrit, hemoglobin concentration, mean corpuscular hemoglobin (MCH), mean corpuscular hemoglobin concentration (MCHC), mean corpuscular volume (MCV), platelet count, WBC count, reticulocyte count, differential WBC, and vacuolated lymphocyte ratio (for PLsis-inducing compounds only) using ADVIA120 (Bayer Medical Ltd.) and E-4000 (Sysmex Corporation).

[2] = tested on: Crj: CD(SD)IGS rats; conditions: rat, in vivo
Method: as §1, §2, §3, §4

[3] = tested on: male cynomolgus monkeys; experiment: Urinary PAGN/hippuric acid ratio by 1H NMR in monkeys; assay type: in vivo, cynomolgus monkey; conditions: for Urinary PAGN/hippuric acid ratio: male cynomolgus monkey, 60 mg/kg/day by gavage for 7 days
Method: (§5) Subsequently, the animals were allocated to four groups (5 animals in total) comprising 2 animals in the control group and 1 male in each treatment group, respectively.
(§6) The high-dose dosing suspension was diluted with the dispersant/solvent to prepare a low-dose dosing suspension.
Pooled urine was collected from the monkeys in the Example above under fasting for about 6 hours in the pre-dosing period (Pre), on the first day of administration (Day 0), and on days 2 and 6 of treatment period (Days 2 and 6).
^1H NMR was performed as described below. Reagents were used without purification. Heavy water (D2O) was purchased from ISOTEC. […] INC (USA).
A phosphate buffer solution was prepared as described below.
Operating conditions were set as shown below.

[4] = tested on: male cynomolgus monkeys; conditions: cynomolgus monkey, in vivo, 60 mg/kg
Method: Amiodarone and perhexiline were purchased from SIGMA Company.
as §5, §6
After completion of the administration, livers, kidneys, hearts, spleens, lungs, mesenteric lymph nodes, eyeballs, testes and brains were collected from all animals, and examined for histopathological changes by conventional method of optical microscopy. Additionally, blood samples were collected in the pre-dosing period, on the first day of administration, and on days 2 and 6 of treatment period, blood smear specimens were prepared, and vacuolated lymphocyte ratios were determined.

[5] = tested on: Crj: CD(SD)IGS rats; experiment: Urinary PAG/hippuric acid ratio by 1H NMR in rats; conditions: rat urine, 3 days, mean n = 3-4
Method: During the urine pooling, the collecting vessels were kept in an ice-cooled condition. After the urine collection, the urine was centrifuged at 1500×g for 10 minutes, and not less than 1 mL of the supernatant was collected and stored under freezing (below −70° C.) in a microtube in an ultralow-temperature freezer until the measurement. For the negative control group, 24-hour pooled urine was collected under ice cooling; after the urine collection, the urine was stored at −30° C. until the measurement.

[6] = tested on: Crj: CD(SD)IGS rats; conditions: rat urine, LC-MS/MS, 60 mg/kg/day by gavage for 7 days
Method: During that period, the animals were quarantined, examined for general conditions, and weighed. Animals showing no abnormalities were selected and randomly allocated to five groups for urine collection each comprising four males.
The animals were individually housed in wire-net-based metal cages, and the individual cages were placed on water-washable rack in a clean booth as randomized for the animal groups. Animal room environmental conditions comprised a room temperature of 20 to 26° C., a relative humidity of 40 to 70%, and a fresh air ventilation frequency of 8 to 25 times/hour, with a bright phase of 12 hours/day (lighting time: 7:00 am to 7:00 pm). The animals were fed a γ-ray-irradiated powder food (CR-LPF, Oriental Yeast Co., Ltd.) and had free access to the food along with tap water.
A dispersant/medium was added to each test material, and the mixture was stirred to prepare dosing suspensions.
Each test material was administered by gavage at a dosing suspension volume of 10 mL/kg/day once daily for 7 days.
After completion of the administration, pooled urine was collected with ice cooling from all animals under fasting and water denial for about 6 hours. […]
Quantitative analyses of rat urinary hippuric acid and PAG by LC-MS/MS were performed as described below. […]

[7] = from Summary Basis of Approval (FDA); species and route not given; cited from earlier work

In the case of C1CCC(C(CC2CCCCN2)C2CCCCC2)CC1 (stereo not shown) [Perhexiline, perhexiline], the “Mean vacuolated lymphocyte ratio” value ([1]; 60 mg/kg/day) was 2%, the “Mean vacuolated lymphocyte ratio” value ([1]; 200 mg/kg/day) was 4% and the “Mean vacuolated lymphocyte ratio” value ([1]; 600 mg/kg/day) was 52%. The “Histopathological changes (PLsis): Liver” value ([2]; 60 mg/kg/day) was “−”, the “Histopathological changes (PLsis): Lung” value ([2]; 60 mg/kg/day) was “−” and the “Histopathological changes (PLsis): Lymph node” value ([2]; 60 mg/kg/day) was “−”. The “Histopathological changes (PLsis): Others” value ([2]; 60 mg/kg/day) was “−”, the “Histopathological changes (PLsis): Spleen” value ([2]; 60 mg/kg/day) was “−” and the “Histopathological changes (PLsis): Liver” value ([2]; 200 mg/kg/day) was “−”. The “Histopathological changes (PLsis): Lung” value ([2]; 200 mg/kg/day) was “+”, the “Histopathological changes (PLsis): Lymph node” value ([2]; 200 mg/kg/day) was “+” and the “Histopathological changes (PLsis): Others” value ([2]; 200 mg/kg/day) was “−”. For the same compound, the “Histopathological changes (PLsis): Spleen” value ([2]; 200 mg/kg/day) was “−”, the “Histopathological changes (PLsis): Liver” value ([2]; 600 mg/kg/day) was “−” and the “Histopathological changes (PLsis): Lung” value ([2]; 600 mg/kg/day) was “+”. The “Histopathological changes (PLsis): Lymph node” value ([2]; 600 mg/kg/day) was “+”, the “Histopathological changes (PLsis): Others” value ([2]; 600 mg/kg/day) was “−” and the “Histopathological changes (PLsis): Spleen” value ([2]; 600 mg/kg/day) was “+”. The “PAGN/hippuric acid ratio compared to the control group” value ([3]; cynomolgus monkey urine, 60 mg/kg, gavage 7 days) was “increased”, the “Urinary PAGN/hippuric acid ratio” value ([3]; Day 0, 1 animal) was 2.17 and the “Urinary PAGN/hippuric acid ratio” value ([3]; Day 2, 1 animal) was 1.43. The “Urinary PAGN/hippuric acid ratio” value ([3]; Day 6, 1 animal) was “↑12.89”, the “Urinary PAGN/hippuric acid ratio” value ([3]; Pre (pre-dosing period), 1 animal) was 1.10 and the “histopathological changes in any target organ” value [4] was “observed”. For the same compound, the “vacuolated lymphocyte ratio” value [4] was “increase”, the “PAG + hippuric acid/creatinine” value ([5]; 60 mg/kg/day by gavage) was 1.47 and the “PAG/PAG + hippuric acid” value ([5]; 60 mg/kg/day by gavage) was 10.16%. For the same compound, the “PAG/creatinine (first term of PAG + hippuric acid)” value (from here on “PAG/creatinine”) ([5]; 60 mg/kg/day by gavage) was 0.15, the PAG/hippuric acid ([5]; 60 mg/kg/day by gavage) was 11.39% and the “hippuric acid/creatinine (second term of PAG + hippuric acid)” value ([5]; 60 mg/kg/day by gavage) was 1.31. The “PAG + hippuric acid/creatinine” value ([5]; 200 mg/kg/day by gavage) was 1.52, the “PAG/PAG + hippuric acid” value ([5]; 200 mg/kg/day by gavage) was 15.59* % and the “PAG/creatinine” value ([5]; 200 mg/kg/day by gavage) was 0.24. For the same compound, the PAG/hippuric acid ([5]; 200 mg/kg/day by gavage) was 18.49%, the “hippuric acid/creatinine (second term of PAG + hippuric acid)” value ([5]; 200 mg/kg/day by gavage) was 1.28 and the “PAG + hippuric acid/creatinine” value ([5]; 600 mg/kg/day by gavage) was 0.75*. The “PAG/PAG + hippuric acid” value ([5]; 600 mg/kg/day by gavage) was 45.67* %, the “PAG/creatinine” value ([5]; 600 mg/kg/day by gavage) was 0.31 and the PAG/hippuric acid ([5]; 600 mg/kg/day by gavage) was 146.97* %. For the same compound, the “hippuric acid/creatinine (second term of PAG + hippuric acid)” value ([5]; 600 mg/kg/day by gavage) was 0.44.
With CCN(CC)CCCC(C)Nc1c2ccc(Cl)cc2nc2ccc(OC)cc12 (stereo not shown) [Quinacrine, quinacrine] the “Mean vacuolated lymphocyte ratio” value ([1]; 60 mg/kg/day) was 14%, the “Mean vacuolated lymphocyte ratio” value ([1]; 200 mg/kg/day) was 32% and the “Mean vacuolated lymphocyte ratio” value ([1]; 600 mg/kg/day) was 52%. For the same compound, the “Histopathological changes (PLsis): Liver” value ([2]; 60 mg/kg/day) was “+”, the “Histopathological changes (PLsis): Lung” value ([2]; 60 mg/kg/day) was “+” and the “Histopathological changes (PLsis): Lymph node” value ([2]; 60 mg/kg/day) was “−”. The “Histopathological changes (PLsis): Others” value ([2]; 60 mg/kg/day) was “−”, the “Histopathological changes (PLsis): Spleen” value ([2]; 60 mg/kg/day) was “−” and the “Histopathological changes (PLsis): Liver” value ([2]; 200 mg/kg/day) was “+”. For the same compound, the “Histopathological changes (PLsis): Lung” value ([2]; 200 mg/kg/day) was “+”, the “Histopathological changes (PLsis): Lymph node” value ([2]; 200 mg/kg/day) was “+” and the “Histopathological changes (PLsis): Others” value ([2]; 200 mg/kg/day) was “−”. For the same compound, the “Histopathological changes (PLsis): Spleen” value ([2]; 200 mg/kg/day) was “−”, the “Histopathological changes (PLsis): Liver” value ([2]; 600 mg/kg/day) was “+” and the “Histopathological changes (PLsis): Lung” value ([2]; 600 mg/kg/day) was “+”. For the same compound, the “Histopathological changes (PLsis): Lymph node” value ([2]; 600 mg/kg/day) was “+”, the “Histopathological changes (PLsis): Others” value ([2]; 600 mg/kg/day) was “−” and the “Histopathological changes (PLsis): Spleen” value ([2]; 600 mg/kg/day) was “−”. The “PAG/hippuric acid concentration ratio compared to the control group” value [6] was “increased”, the PAG/hippuric acid ratio ([6]; mean ± SD n = 4) was 0.2178 ± 0.0919 and the LD50 [7] was 900 mg/kg. The “PAG + hippuric acid/creatinine” value ([5]; 60 mg/kg/day by gavage) was 1.45, the “PAG/PAG + hippuric acid” value ([5]; 60 mg/kg/day by gavage) was 21.82* % and the “PAG/creatinine” value ([5]; 60 mg/kg/day by gavage) was 0.32. For the same compound, the PAG/hippuric acid ([5]; 60 mg/kg/day by gavage) was 28.35* %, the “hippuric acid/creatinine (second term of PAG + hippuric acid)” value ([5]; 60 mg/kg/day by gavage) was 1.13 and the “PAG + hippuric acid/creatinine” value ([5]; 200 mg/kg/day by gavage) was 1.58. For the same compound, the “PAG/PAG + hippuric acid” value ([5]; 200 mg/kg/day by gavage) was 46.42* %, the “PAG/creatinine” value ([5]; 200 mg/kg/day by gavage) was 0.75 and the PAG/hippuric acid ([5]; 200 mg/kg/day by gavage) was 91.89* %. For the same compound, the “hippuric acid/creatinine (second term of PAG + hippuric acid)” value ([5]; 200 mg/kg/day by gavage) was 0.83, the “PAG + hippuric acid/creatinine” value ([5]; 600 mg/kg/day by gavage) was 1.07* and the “PAG/PAG + hippuric acid” value ([5]; 600 mg/kg/day by gavage) was 78.62* %. For the same compound, the “PAG/creatinine” value ([5]; 600 mg/kg/day by gavage) was 0.83, the PAG/hippuric acid ([5]; 600 mg/kg/day by gavage) was 441.69* % and the “hippuric acid/creatinine (second term of PAG + hippuric acid)” value ([5]; 600 mg/kg/day by gavage) was 0.24.
